This note sets out measurements from US11459315B2, “Modulators of methyl modifying enzymes, compositions and uses thereof” (Constellation Pharmaceuticals, Inc., priority 2017, dated 2022).

The structures appear in SMILES notation. Where two headings read alike, the source gives them in different places. Bounds are passed on as bounds.

The target of assay [1] is PRC2 containing wt EZH2 (Homo sapiens (Human), UniProt Q15910). In words: EZH2 biochemical assay (IC50), 3H-SAM incorporation into biotinylated H3 peptide. In short, it runs like this: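 The PRC2 pentamer with wt EZH2 (30 pM) was pre-incubated for 3-5 h with 450 nM SAM plus 450 nM ³H-SAM, 2 µM H3K27me3 activating peptide and compound (0.8% DMSO) in Tris at pH 8.5. Biotinylated H3K27me1 peptide was added and the reaction ran 18-22 h at RT. Incorporated ³H was captured on streptavidin plates, and IC50 was taken from a four-parameter fit.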

Assay [2] relates to H3K27me3 mark in HeLa cells (EZH2). The assay is described as follows: H3K27me3 Alpha Hela Assay (AlphaLISA). The format is cell-based. The settings on record: HeLa cells, 72 hrs, read-out: EZH2 Cell H3K27me3 Alpha HeLa (EC50 K27me3). The gist of the method: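 HeLa cells (1,000/well) treated with ten 3-fold compound doses for 72 h at 37 °C; lysates extracted and H3K27me3 detected by AlphaLISA with anti-K27me3 acceptor beads, biotinylated anti-H3 (3 nM) and streptavidin donor beads. EC50 from DMSO-normalized dose-response curves; duplicate plate assessed viability.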
In general terms: Alpha assays give light when donor and acceptor beads are brought close together.

Where [3] appears, read: 30 pM PRC2 containing wt EZH2; 3-5 h pre-incubation; read-out: EZH2 (IC50).
The mark [4] stands for this setting: EZH2 (IC50), 30 pM PRC2 containing wt EZH2; 3-5 h pre-incubation.
The mark [5] stands for this setting: read-out: EZH2 (IC50); 30 pM PRC2 containing wt EZH2; 3-5 h pre-incubation.

Sequence of PRC2 containing wt EZH2 (Q15910 whole entry): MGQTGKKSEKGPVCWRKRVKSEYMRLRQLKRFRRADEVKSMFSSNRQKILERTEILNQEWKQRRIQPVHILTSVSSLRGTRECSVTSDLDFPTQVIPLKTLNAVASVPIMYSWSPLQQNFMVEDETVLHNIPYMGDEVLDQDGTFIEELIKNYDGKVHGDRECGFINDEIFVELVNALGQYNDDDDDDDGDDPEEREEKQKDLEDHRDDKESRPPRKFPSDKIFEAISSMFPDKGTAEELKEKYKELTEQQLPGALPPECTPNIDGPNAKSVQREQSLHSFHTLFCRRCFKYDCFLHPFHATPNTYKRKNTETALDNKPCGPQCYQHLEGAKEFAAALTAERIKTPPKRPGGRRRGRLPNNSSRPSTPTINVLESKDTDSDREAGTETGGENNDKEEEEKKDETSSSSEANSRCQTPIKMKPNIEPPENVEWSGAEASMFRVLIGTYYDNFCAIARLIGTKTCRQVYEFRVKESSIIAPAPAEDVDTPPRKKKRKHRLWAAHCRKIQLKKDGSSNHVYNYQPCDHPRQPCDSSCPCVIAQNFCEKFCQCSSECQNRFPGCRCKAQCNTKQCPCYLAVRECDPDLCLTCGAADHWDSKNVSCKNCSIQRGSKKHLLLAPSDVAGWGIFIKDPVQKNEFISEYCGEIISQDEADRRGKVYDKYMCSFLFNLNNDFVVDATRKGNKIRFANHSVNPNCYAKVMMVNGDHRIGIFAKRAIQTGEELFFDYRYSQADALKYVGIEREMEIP
Sequence of PRC2 containing wt EZH2 (O75530 whole entry partner): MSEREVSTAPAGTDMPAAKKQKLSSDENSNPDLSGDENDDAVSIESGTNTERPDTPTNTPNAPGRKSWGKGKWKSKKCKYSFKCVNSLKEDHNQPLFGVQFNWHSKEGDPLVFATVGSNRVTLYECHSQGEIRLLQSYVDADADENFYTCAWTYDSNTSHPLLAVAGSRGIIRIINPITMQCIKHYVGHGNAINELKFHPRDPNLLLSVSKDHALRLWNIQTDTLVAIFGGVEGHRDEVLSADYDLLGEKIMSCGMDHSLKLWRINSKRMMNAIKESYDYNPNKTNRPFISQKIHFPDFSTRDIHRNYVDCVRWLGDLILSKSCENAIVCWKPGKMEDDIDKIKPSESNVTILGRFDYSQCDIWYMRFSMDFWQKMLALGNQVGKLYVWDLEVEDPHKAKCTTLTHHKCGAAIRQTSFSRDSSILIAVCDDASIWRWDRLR
Sequence of PRC2 containing wt EZH2 (Q15022 whole entry partner): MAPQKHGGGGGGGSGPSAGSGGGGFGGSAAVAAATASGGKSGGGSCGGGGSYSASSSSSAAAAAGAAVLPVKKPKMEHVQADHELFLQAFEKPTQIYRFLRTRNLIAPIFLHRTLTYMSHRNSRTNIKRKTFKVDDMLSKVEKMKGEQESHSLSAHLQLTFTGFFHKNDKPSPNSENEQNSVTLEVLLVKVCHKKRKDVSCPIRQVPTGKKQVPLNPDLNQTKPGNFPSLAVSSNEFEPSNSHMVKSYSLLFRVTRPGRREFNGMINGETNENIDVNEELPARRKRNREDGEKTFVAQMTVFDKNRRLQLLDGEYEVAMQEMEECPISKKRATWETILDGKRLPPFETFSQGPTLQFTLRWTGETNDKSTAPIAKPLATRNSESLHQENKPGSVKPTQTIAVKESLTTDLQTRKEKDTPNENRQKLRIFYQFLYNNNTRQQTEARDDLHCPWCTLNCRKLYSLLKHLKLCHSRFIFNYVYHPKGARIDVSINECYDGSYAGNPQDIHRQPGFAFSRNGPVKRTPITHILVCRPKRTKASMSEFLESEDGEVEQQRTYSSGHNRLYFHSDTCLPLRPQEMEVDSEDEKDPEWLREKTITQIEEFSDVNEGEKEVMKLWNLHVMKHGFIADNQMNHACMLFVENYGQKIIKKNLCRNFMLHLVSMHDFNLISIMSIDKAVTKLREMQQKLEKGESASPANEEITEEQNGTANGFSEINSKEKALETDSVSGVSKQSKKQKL
Sequence of PRC2 containing wt EZH2 (Q09028 whole entry partner): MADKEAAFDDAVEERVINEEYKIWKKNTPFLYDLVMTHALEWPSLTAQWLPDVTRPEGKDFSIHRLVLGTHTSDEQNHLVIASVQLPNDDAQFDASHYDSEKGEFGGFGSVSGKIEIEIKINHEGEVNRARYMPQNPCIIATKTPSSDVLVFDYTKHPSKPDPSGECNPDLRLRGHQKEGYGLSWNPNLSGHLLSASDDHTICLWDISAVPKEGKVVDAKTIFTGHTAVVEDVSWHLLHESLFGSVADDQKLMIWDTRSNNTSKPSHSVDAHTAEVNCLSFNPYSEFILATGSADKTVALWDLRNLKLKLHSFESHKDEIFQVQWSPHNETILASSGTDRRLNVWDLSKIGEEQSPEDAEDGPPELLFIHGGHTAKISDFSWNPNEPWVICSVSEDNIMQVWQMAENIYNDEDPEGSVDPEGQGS
Sequence of PRC2 containing wt EZH2 (Q6ZN18 whole entry partner): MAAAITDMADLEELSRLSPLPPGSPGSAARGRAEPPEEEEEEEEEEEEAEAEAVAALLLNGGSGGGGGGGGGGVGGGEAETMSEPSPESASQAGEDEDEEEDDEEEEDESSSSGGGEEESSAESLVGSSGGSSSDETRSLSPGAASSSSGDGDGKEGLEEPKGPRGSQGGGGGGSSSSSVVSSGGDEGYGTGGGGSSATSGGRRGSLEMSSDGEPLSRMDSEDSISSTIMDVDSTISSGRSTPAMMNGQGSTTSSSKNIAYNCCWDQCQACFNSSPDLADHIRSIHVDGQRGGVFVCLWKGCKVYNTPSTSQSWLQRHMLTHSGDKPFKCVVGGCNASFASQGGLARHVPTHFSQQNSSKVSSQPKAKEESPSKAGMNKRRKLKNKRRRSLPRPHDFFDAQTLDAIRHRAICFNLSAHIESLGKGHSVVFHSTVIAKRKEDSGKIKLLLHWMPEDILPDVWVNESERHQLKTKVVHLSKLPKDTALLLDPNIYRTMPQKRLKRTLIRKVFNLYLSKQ

With `CSc1cc(C)[nH]c(=O)c1CNC(=O)c1c(C)n([C@H](C)C2CCC(N3CC(OC(F)F)C3)CC2)c2ncncc12` (stereo partly drawn) [Example 108, 7-((R)-1-(4-(3-(difluoromethoxy)azetidin-1-yl)cyclohexyl)ethyl)-6-methyl-N-((6-methyl-4-(methylthio)-2-oxo-1,2-dihydropyridin-3-yl)methyl)-7H-pyrrolo[2,3-d]pyrimidine-5-carboxamide], in assay [1] (setting [3]), the IC50 (usually the concentration that gives 50% inhibition) is less than 0.5 nM. Also, the EC50 – broadly, the concentration giving half of the maximal effect – in assay [2] (Homo sapiens, HeLa, 72 h) was less than 10 nM.

As for `CSc1cc(C)[nH]c(=O)c1CNC(=O)c1c(C)n([C@@H](C)[C@H]2OC[C@H](N3CCC34COC4)CO2)c2ccccc12` (single isomer, unassigned; isomer 2) [151 (isomer 2)], the IC50 in assay [1] (setting [3]) is greater than 5 nM. In addition, in assay [2], the EC50 was greater than 100 nM.

In assay [1] (setting [4]), `CSc1cc(C)[nH]c(=O)c1CNC(=O)c1c(C)n([C@H](C)C2CCC(N3CC[C@@H](F)C3)CC2)c2ccccc12` (single isomer, unassigned) [79 (isomer 1)] came in with an IC50 of less than 0.5 nM. The EC50 in assay [2] (Homo sapiens, HeLa, 72 h) is less than 10 nM.

For the molecule `CSc1cc(C)[nH]c(=O)c1CNC(=O)c1c(C)n([C@H](C)C2OCC(NC3(C)COC3)CO2)c2ccccc12` (single isomer, unassigned) [6 (isomer 1)], the IC50 in assay [1] (setting [3]) is less than 0.5 nM. In assay [2], the EC50 was less than 10 nM.

In the case of `CSc1cc(C)[nH]c(=O)c1CNC(=O)c1c(C)n([C@H](C)C2CCN(CC(F)(F)F)CC2)c2cccc(C#N)c12` [Example 97, (R)-4-cyano-2-methyl-N-((6-methyl-4-(methylthio)-2-oxo-1,2-dihydropyridin-3-yl)methyl)-1-(1-(1-(2,2,2-trifluoroethyl)piperidin-4-yl)ethyl)-1H-indole-3-carboxamide], the IC50 in assay [1] (setting [3]) was greater than 5 nM. Further, the EC50 in assay [2] (Homo sapiens, HeLa, 72 h) is greater than 100 nM.

Consider `CSc1cc(C)[nH]c(=O)c1CNC(=O)c1c(C)n([C@H](C)C2CCC(NC3(C(F)(F)F)COC3)CC2)c2ncncc12` (single isomer, unassigned) [164 (isomer 2)], for which, in assay [1] (setting [3]), the IC50 lay in the range of 0.5 to 5 nM. Moreover, the EC50 in assay [2] was 10 to 100 nM.

As for `COC1CCC([C@@H](C)n2c(C)c(C(=O)NCc3c(SC)cc(C)[nH]c3=O)c3cncnc32)CC1` (single isomer, unassigned) [41 (isomer 1)], the IC50 in assay [1] (setting [4]) was less than 0.5 nM. In assay [2] (Homo sapiens, HeLa, 72 h), the EC50 is less than 10 nM.

With `CSc1cc(C)[nH]c(=O)c1CNC(=O)c1c(C)n([C@H](C)C2CCC(N3CCOCC3)CC2)c2ccccc12` (single isomer, unassigned) [75 (isomer 1)], in assay [1] (setting [4]), the IC50 was less than 0.5 nM. Also, the EC50 in assay [2] (Homo sapiens, HeLa, 72 h) was in the range of 10 to 100 nM.

For `CNC1COC([C@@H](C)n2c(C)c(C(=O)NCc3c(SC)cc(C)[nH]c3=O)c3ccccc32)OC1` (stereo partly drawn) [Example 17, (R)-2-methyl-N-((6-methyl-4-(methylthio)-2-oxo-1,2-dihydropyridin-3-yl)methyl)-1-(1-(5-(methylamino)-1,3-dioxan-2-yl)ethyl)-1H-indole-3-carboxamide], the IC50 in assay [1] (setting [3]) was less than 0.5 nM. Further, in assay [2] (Homo sapiens, HeLa, 72 h), the EC50 was less than 10 nM.

Turning to `CSc1cc(C)[nH]c(=O)c1CNC(=O)c1c(C)n([C@H](C)C23CC(N(C)CC(F)(F)F)(C2)C3)c2ccccc12` [Example 10, (R)-2-methyl-1-(1-(3-(methyl(2,2,2-trifluoroethyl)amino)bicyclo[1.1.1]pentan-1-yl)ethyl)-N-((6-methyl-4-(methylthio)-2-oxo-1,2-dihydropyridin-3-yl)methyl)-1H-indole-3-carboxamide], the IC50 in assay [1] (setting [3]) was less than 0.5 nM. Further, the EC50 in assay [2] (Homo sapiens, HeLa, 72 h) was less than 10 nM.

On to `COC1CC(N2CCC([C@@H](C)n3c(C)c(C(=O)NCc4c(SC)cc(C)[nH]c4=O)c4ccccc43)CC2)C1` (stereo partly drawn) [Example 140, (R)-1-(1-(1-(3-methoxycyclobutyl)piperidin-4-yl)ethyl)-2-methyl-N-((6-methyl-4-(methylthio)-2-oxo-1,2-dihydropyridin-3-yl)methyl)-1H-indole-3-carboxamide], for which the IC50 in assay [1] (setting [4]) was less than 0.5 nM. The EC50 in assay [2] (Homo sapiens, HeLa, 72 h) was in the range of 10 to 100 nM.

Take `CSc1cc(C)[nH]c(=O)c1CNC(=O)c1c(C)n([C@H](C)C2CCC(OC3CN(C)C3)CC2)c2ncccc12` (single isomer, unassigned) [145 (isomer 1)]: in assay [1] (setting [4]), the IC50 was 0.5 to 5 nM. Also, in assay [2] (Homo sapiens, HeLa, 72 h), the EC50 was greater than 100 nM.

Regarding `CSc1cc(C)[nH]c(=O)c1CNC(=O)c1c(C)n([C@H](C)C2CCN(C3CC(F)C3)CC2)c2ccccc12` (single isomer, unassigned) [64 (isomer 2)], the IC50 in assay [1] (setting [5]) is less than 0.5 nM. The EC50 in assay [2] is 10 to 100 nM.

For the molecule `CSc1cc(C)[nH]c(=O)c1CNC(=O)c1c(C)n([C@H](C)C2CCC(N3CC(OC(F)(F)F)C3)CC2)c2ccccc12` (single isomer, unassigned) [21 (isomer 2)], the IC50 in assay [1] (setting [3]) is less than 0.5 nM. Further, the EC50 in assay [2] was in the range of 10 to 100 nM.

Take `COCCN(C)C1COC([C@@H](C)n2c(C)c(C(=O)NCc3c(SC)cc(C)[nH]c3=O)c3ccccc32)OC1` (single isomer, unassigned) [16 (isomer 1)]: the IC50 in assay [1] (setting [3]) was less than 0.5 nM. In addition, the EC50 in assay [2] is less than 10 nM.

As to `COC1CN(C2CCC([C@@H](C)n3c(C)c(C(=O)NCc4c(SC)cc(C)[nH]c4=O)c4cc(F)cnc43)CC2)C1` (single isomer, unassigned) [94 (isomer 2)], in assay [1] (setting [3]), the IC50 lay within 0.5 to 5 nM. Further, the EC50 in assay [2] was greater than 100 nM.

For the molecule `CSc1cc(C)[nH]c(=O)c1CNC(=O)c1c(C)n([C@H](C)C2CCC(N3CC(F)C3)CC2)c2ncccc12` (stereo partly drawn) [Example 65, 1-((R)-1-(4-(3-fluoroazetidin-1-yl)cyclohexyl)ethyl)-2-methyl-N-((6-methyl-4-(methylthio)-2-oxo-1,2-dihydropyridin-3-yl)methyl)-1H-pyrrolo[2,3-b]pyridine-3-carboxamide], in assay [1] (setting [4]), the IC50 was less than 0.5 nM. In addition, the EC50 in assay [2] (Homo sapiens, HeLa, 72 h) is less than 10 nM.

Consider `CSc1cc(C)[nH]c(=O)c1CNC(=O)c1c(C)n([C@H](C)C2CCC(N3CCOC3=O)CC2)c2ccccc12` (stereo partly drawn) [Example 74, 2-methyl-N-((6-methyl-4-(methylthio)-2-oxo-1,2-dihydropyridin-3-yl)methyl)-1-((R)-1-(4-(2-oxooxazolidin-3-yl)cyclohexyl)ethyl)-1H-indole-3-carboxamide], for which, in assay [1] (setting [3]), the IC50 was less than 0.5 nM. Also, in assay [2] (Homo sapiens, HeLa, 72 h), the EC50 was in the range of 10 to 100 nM.

For `COC1CN(C2CCC([C@@H](C)n3c(C)c(C(=O)NCc4c(SC5CC5)cc(C)[nH]c4=O)c4ccccc43)CC2)C1` (stereo partly drawn) [Example 99, N-((4-(cyclopropylthio)-6-methyl-2-oxo-1,2-dihydropyridin-3-yl)methyl)-1-((R)-1-(4-(3-methoxyazetidin-1-yl)cyclohexyl)ethyl)-2-methyl-1H-indole-3-carboxamide], the IC50 in assay [1] (setting [3]) is less than 0.5 nM. Besides, the concentration for a half-maximal effect (EC50) in assay [2] (Homo sapiens, HeLa, 72 h) lay in the range of 10 to 100 nM.

The molecule `CSc1cc(C)[nH]c(=O)c1CNC(=O)c1c(C)n([C@H](C)C2CCC(N3CC(C#N)C3)CC2)c2ccccc12` (single isomer, unassigned) [138 (isomer 2)] showed an IC50 in assay [1] (setting [4]) of less than 0.5 nM. Further, the EC50 in assay [2] was in the range of 10 to 100 nM.

`CSc1cc(C)[nH]c(=O)c1CNC(=O)c1c(C)n([C@H](C)C2CCC(N3CC(OC(F)F)C3)CC2)c2ccccc12` (single isomer, unassigned) [20 (isomer 2)]: the IC50 in assay [1] (setting [3]) is less than 0.5 nM. The EC50 in assay [2] lay in the range of 10 to 100 nM.

The molecule `CSc1cc(C)[nH]c(=O)c1CNC(=O)c1c(C)n([C@H](C)C2CCN(CC(F)(F)F)CC2)c2cccc(Br)c12` [Example 128, (R)-4-bromo-2-methyl-N-((6-methyl-4-(methylthio)-2-oxo-1,2-dihydropyridin-3-yl)methyl)-1-(1-(1-(2,2,2-trifluoroethyl)piperidin-4-yl)ethyl)-1H-indole-3-carboxamide] came in with an IC50 in assay [1] (setting [4]) of 0.5 to 5 nM. For the same molecule, the EC50 in assay [2] (Homo sapiens, HeLa, 72 h) lay within 10 to 100 nM.

In the case of `CSc1cc(C)[nH]c(=O)c1CNC(=O)c1c(C)n([C@H](C)C2CCN(C3CC3)CC2)c2ccccc12` [Example 48, (R)-1-(1-(1-cyclopropylpiperidin-4-yl)ethyl)-2-methyl-N-((6-methyl-4-(methylthio)-2-oxo-1,2-dihydropyridin-3-yl)methyl)-1H-indole-3-carboxamide], the IC50 in assay [1] (setting [4]) is less than 0.5 nM. In assay [2] (Homo sapiens, HeLa, 72 h), the EC50 is less than 10 nM.

Consider `CSc1cc(C)[nH]c(=O)c1CNC(=O)c1c(C)n([C@H](C)C2CCC(O)CC2)c2ccccc12` (single isomer, unassigned) [19 (isomer 2)], for which, in assay [1] (setting [5]), the IC50 is less than 0.5 nM. Further, the EC50 in assay [2] is less than 10 nM.

As to `CSc1cc(C)[nH]c(=O)c1CNC(=O)c1c(C)n([C@H](C)C2CCC(OC(F)F)CC2)c2ccccc12` (single isomer, unassigned) [60 (isomer 2)], the IC50 in assay [1] (setting [5]) was less than 0.5 nM. The EC50 in assay [2] was less than 10 nM.

In assay [1] (setting [4]), `CSc1cc(C)[nH]c(=O)c1CNC(=O)c1c(C)n([C@H](C)C2OCC(N3CC(C)(C)C3)CO2)c2ccccc12` (single isomer, unassigned) [78 (isomer 2)] came in with an IC50 greater than 5 nM. For the same molecule, in assay [2], the EC50 was greater than 100 nM.

For `CSc1cc(C)[nH]c(=O)c1CNC(=O)c1c(C)n([C@H](C)C2CCC(N3CC(C(F)F)C3)CC2)c2ncccc12` (stereo partly drawn) [Example 96, 1-((R)-1-(4-(3-(difluoromethyl)azetidin-1-yl)cyclohexyl)ethyl)-2-methyl-N-((6-methyl-4-(methylthio)-2-oxo-1,2-dihydropyridin-3-yl)methyl)-1H-pyrrolo[2,3-b]pyridine-3-carboxamide], the IC50 in assay [1] (setting [3]) is less than 0.5 nM. Further, the EC50 in assay [2] (Homo sapiens, HeLa, 72 h) was less than 10 nM.

Molecule `COC1CN(C2CCC([C@@H](C)n3c(C)c(C(=O)NCc4c(SC)cc(C)[nH]c4=O)c4ccccc43)CC2)C1` (single isomer, unassigned) [4 (isomer 1)] displayed an IC50 in assay [1] (setting [4]) of less than 0.5 nM. In addition, the EC50 in assay [2] (Homo sapiens, HeLa, 72 h) is less than 10 nM.
